In article PMC12641781, “Insights into Hepatic, Neuronal, and hERG Channel Safety of Plant-Derived Active Compounds” (Journal of Xenobiotics, 2025):
pIC50: −log10 of the molar value. Values after ≈ are worked out from the molar mass of the structure shown. Like-named read-outs stand apart in the source and are kept apart here.

What was measured:
HepG2 cells [1] = assay: Hepatocellular viability assay (resazurin reduction); type: cell-based, Human; conditions: for pIC50: Homo sapiens, read-out: IC50, HepG2 cell viability
Procedure: HepG2 cells (1.5 × 10^4 cells per 100 µL) were seeded into black, clear-bottom 96-well plates and incubated at 37 °C with 5% CO2 for 24 h. The test compounds were prepared in complete media at final concentrations of 0.01, 0.1, 1, 10, and 100 μM and added to each well. For the negative control, 0.2% (v/v) DMSO was used to represent maximum viability, while 0.01% (v/v) Triton X-100 was used as the positive control for minimum viability. The plates were incubated at 37 °C under 5% CO2. After 20 h of incubation, 20% (v/v) CellTiter-Blue Cell Resazurin reagent was added to each well, followed by an additional 2–4 h of incubation. Fluorescence intensity, indicating resorufin levels, was measured at 590 nm using a Synergy H1 reader was obtained from Agilent Technologies (Santa Clara, CA, USA). Each data point was normalized based on the maximum and minimum cell viability data and expressed as % Relative viability using the following formula: % Relative viability=(Experimental data−Minimal viability data)/(Maximal viability data−Minimal viability data)×100

[2] = system: Undifferentiated ReNcell VM cells; assay: Neuronal viability assay, undifferentiated cells (resazurin); type: cell-based, human; conditions: for pIC50: 24 h, read-out: IC50, undifferentiated ReNcell VM cell viability; for Inhibition of undifferentiated ReNcell NSC viability: at concentrations up to 100 µM, compared to Triton X-100
Procedure: Undifferentiated ReNcell VM cells were seeded into Matrigel®-coated black, clear-bottom 96-well plates at densities of 1.5 × 10^4 per well. The cells were maintained in ReNcell NSC Maintenance Media (Merck Millipore, MA, USA), supplemented with 10% EGF and 1% penicillin/streptomycin, and were incubated at 37 °C with 5% CO2 for 24 h.
(§1) Differentiated ReNcell VM cells were seeded into Matrigel®-coated black, clear-bottom 96-well plates at densities of 3.0 × 10^4 per well. The ReNcell VM cells were incubated at 37 °C with 5% CO2 in the ReNcell Maintenance Media (Merck Millipore, MA, USA) without growth factor. The media was changed every two days for three weeks. Both cell types were treated with test compounds at 0.01, 0.1, 1, 10, and 100 μM. DMSO was used as the control for maximum cell viability, and Triton X-100 was the control for minimum viability. After 20 h of incubation at 37 °C with 5% CO2. Cell viability was assessed using the CellTiter-Blue® Cell Resazurin reagent.

[3] = system: Differentiated ReNcell VM cells; assay: Neuronal viability assay, differentiated cells (resazurin); type: cell-based; conditions: Homo sapiens, read-out: IC50, differentiated ReNcell VM cell viability
Procedure: ReNcell VM cells were seeded into Matrigel®-coated black, clear-bottom 96-well plates at a density of 3.0 × 10^4 cells per well for differentiation assays. The cells were maintained in ReNcell NSC Maintenance Medium (Merck Millipore, Burlington, MA, USA) without growth factors to induce differentiation. The culture medium was changed every two days for three weeks.
as §1

hERG = target: T1, hERG (Homo sapiens, UniProt Q12809); assay: hERG inhibition assay by automated patch-clamp electrophysiology in hERG-overexpressing HEK293 cells; type: cell-based
T1 construct: host or cells: HEK293 cells stably overexpressing hERG
Procedure: hERG channel inhibition assay was performed using patch-clamp electrophysiology. HEK293 cells stably overexpressing hERG channels (Eurofins Scientific, Luxembourg) were cultured in Dulbecco’s Modified Eagle Medium F-12 (GIBCO, Carlsbad, CA, USA) supplemented with 10% (v/v) fetal bovine serum (FBS) and 1% penicillin/streptomycin at 37 °C with 5% CO2 until reaching approximately 80% confluency. Cells were then subcultured using trypsin (HyClone, Marlborough, MA, USA), to enzymatically detach adherent HEK293 cells, centrifuged, and resuspended in the External standard buffer (Nanion Technologies, Munich, Germany).
A gigaohm seal was formed after cell seeding in the NPC-16 chip (Nanion Technologies) wells. Brief suction pulses were applied to achieve whole-cell configuration. The hERG channel activity was assessed using a voltage protocol consisting of steps to −80 mV, −40 mV, +40 mV, −40 mV, and back to −80 mV, triggering tail currents. Each well’s peak hERG tail current served as the baseline activity level. To evaluate the inhibitory effects of the six tested compounds, their stock solutions ([…]) were diluted with the external standard buffer to final concentrations of 100 µM, 10 µM, 1 µM, 0.1 µM, and 0.01 µM, and automatically applied to the wells. Subsequently, hERG channel activity was measured again using the same voltage protocol. The relative changes in hERG activity induced by the compounds were calculated and expressed as percentages using the following formula:% hERG activity = (Peak hERG tail current after compound treatment/Peak hERG tail current before compound treatment) × 100

HepG2 cells [4] = system: HepG2 cells; design: method as in PMID 29348769, PMID 31388314, PMID 40952293; conditions: cited from earlier work
[5] = system: triple-negative breast cancer (TNBC) cells; design: method as in PMID 29348769, PMID 31388314, PMID 40952293; conditions: cited from earlier work
[6] = AL single oral dose of 1000 mg/kg body weight (equivalent to 48.4 mg of ATD), healthy Thai subjects; cited from earlier work
[7] = single oral dose of rikkunshito (7.5 g/day), healthy Japanese subjects; cited from earlier work
[8] = dose of 10 g, healthy volunteers; cited from earlier work
CYP2D6 = system: CYP2D6; design: method as in PMID 37553989; conditions: EPMC as major active compound of the Dephrungsith formulation; cited from earlier work
CYP1A1 = system: CYP1A1; design: method as in PMID 24146513; conditions: in the Yahom Tultavai formulation; cited from earlier work
CYP1A2 = system: CYP1A2; design: method as in PMID 24146513; conditions: in the Yahom Tultavai formulation; cited from earlier work
CYP2E1 = system: CYP2E1; design: method as in PMID 24146513; conditions: in the Yahom Tultavai formulation; cited from earlier work
[9] = design: method as in PMID 18039808; conditions: oral 500 mg/kg dose in animals; cited from earlier work
[10] = rats, oral dose of 100 mg/kg body weight; read-out: plasma Cmax; cited from earlier work
[11] = HepG2 cells, 24 h, resazurin assay, 0.01-100 μM
[12] = Homo sapiens, undifferentiated ReNcell VM cells, resazurin assay, 0.01-100 μM
[13] = differentiated ReNcell VM cells (three weeks without growth factor), 24 h, resazurin assay
[14] = hERG-overexpressing HEK293 cells, peak tail current, automated patch clamp, read-out: IC50, hERG channel activity
[15] = Homo sapiens, ReNcell VM, undifferentiated ReNcell VM cells, resazurin assay, 0.01-100 μM

T1 sequence (Q12809 whole entry): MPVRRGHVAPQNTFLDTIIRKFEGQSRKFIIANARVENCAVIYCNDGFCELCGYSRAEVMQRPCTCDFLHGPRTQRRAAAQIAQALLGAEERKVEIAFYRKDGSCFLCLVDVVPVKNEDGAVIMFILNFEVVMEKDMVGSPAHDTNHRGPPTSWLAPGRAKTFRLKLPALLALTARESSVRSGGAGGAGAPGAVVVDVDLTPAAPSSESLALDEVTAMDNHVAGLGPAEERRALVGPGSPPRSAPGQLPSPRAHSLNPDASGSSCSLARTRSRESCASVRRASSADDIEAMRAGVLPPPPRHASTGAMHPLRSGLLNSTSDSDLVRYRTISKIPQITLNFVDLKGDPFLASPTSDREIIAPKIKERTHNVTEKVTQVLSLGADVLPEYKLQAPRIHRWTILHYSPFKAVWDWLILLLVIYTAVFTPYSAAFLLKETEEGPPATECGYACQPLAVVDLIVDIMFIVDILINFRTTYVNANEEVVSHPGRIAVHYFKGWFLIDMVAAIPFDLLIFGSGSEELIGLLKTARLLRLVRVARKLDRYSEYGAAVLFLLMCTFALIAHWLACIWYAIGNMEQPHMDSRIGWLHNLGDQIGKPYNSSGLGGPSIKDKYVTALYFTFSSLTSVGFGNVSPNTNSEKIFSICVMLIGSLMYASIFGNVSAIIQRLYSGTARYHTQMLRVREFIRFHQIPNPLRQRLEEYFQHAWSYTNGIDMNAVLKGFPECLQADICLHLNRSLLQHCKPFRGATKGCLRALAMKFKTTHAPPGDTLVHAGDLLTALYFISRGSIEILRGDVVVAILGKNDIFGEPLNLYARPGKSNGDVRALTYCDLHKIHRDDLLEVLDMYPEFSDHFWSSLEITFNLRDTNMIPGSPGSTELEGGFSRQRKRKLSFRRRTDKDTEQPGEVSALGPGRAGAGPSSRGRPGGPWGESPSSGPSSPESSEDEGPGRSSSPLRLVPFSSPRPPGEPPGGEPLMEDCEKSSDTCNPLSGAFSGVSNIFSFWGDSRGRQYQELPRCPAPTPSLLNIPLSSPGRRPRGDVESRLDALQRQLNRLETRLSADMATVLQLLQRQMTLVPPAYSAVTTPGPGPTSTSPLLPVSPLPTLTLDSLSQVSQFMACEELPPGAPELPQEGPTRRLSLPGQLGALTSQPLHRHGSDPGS

C/C=C/C#CC#C/C=C/c1ccco1 [ATD, Atractylodin]
pIC50 (HepG2 cells [1]; HepG2, 24 h): < 4.00 | pIC50 ([2]; Homo sapiens, ReNcell VM): < 4.00 | Inhibition of undifferentiated ReNcell NSC viability [2]: did not inhibit | pIC50 ([3]; ReNcell VM): < 4.00 | pIC50 (hERG): 4.58 | pIC50 (hERG; human): 4.65 | IC50, inhibitory effects on HepG2 cells (HepG2 cells [4]): 26.19 µg/mL (≈ 144 µM) | IC50, triple-negative breast cancer (TNBC) cells [5]: 92.11 µg/mL (≈ 505 µM) | maximal plasma concentration (Cmax) [6]: 50.35 (13.8–52.90) ng/mL | maximal plasma concentration (Cmax) [7]: 0.002 to 20 ng/mL

C=C1CCC[C@]2(C)CC[C@@H](C(C)(C)O)C[C@@H]12 [BEU, β-eudesmol]
pIC50 (HepG2 cells [1]; [11]): < 4.00 | pIC50 [2, 12]: < 4.00 | Inhibition of undifferentiated ReNcell NSC viability [2]: did not inhibit | pIC50 [3, 13]: < 4.00 | pIC50 (hERG; [14]): 4.48

COc1cc(/C=C/C(=O)CC(=O)/C=C/c2ccc(O)c(OC)c2)ccc1O [CUR, Curcumin]
pIC50 (HepG2 cells [1]; [11]): 4.68 | pIC50 [2, 15]: 4.68 | pIC50 ([2]; undifferentiated ReNcell VM cells, resazurin assay, 0.01-100 μM): 4.67 | plasma Cmax [8]: 2300 ng/mL

CCOC(=O)/C=C/c1ccc(OC)cc1 [EPMC, ethyl-p-methoxycinnamate]
pIC50 (HepG2 cells [1]; HepG2, 24 h, HepG2 cells, 24 h, resazurin assay, 0.01-100 μM): < 4.00 | pIC50 [2, 15]: < 4.00 | Inhibition of undifferentiated ReNcell NSC viability [2]: did not inhibit | pIC50 [3, 13]: < 4.00 | pIC50 (hERG; [14]): 4.28 | CYP2D6 inhibition in vitro (CYP2D6): potently inhibits | CYP1A1 inhibition in vivo (CYP1A1): inhibits | CYP1A2 inhibition in vivo (CYP1A2): inhibits | CYP2E1 inhibition in vivo (CYP2E1): inhibits

CCC/C=C1\OC(=O)C2=C1CCC=C2 [LIG, ligustilide]
pIC50 (HepG2 cells [1]; [11]): < 4.00 | pIC50 [2, 12]: < 4.00 | Inhibition of undifferentiated ReNcell NSC viability [2]: did not inhibit | pIC50 [3, 13]: < 4.00 | pIC50 (hERG; [14]): 4.43 | plasma Cmax [9]: 660 ng/mL

COc1c(O)cc2oc3cc(O)c(CC=C(C)C)c(O)c3c(=O)c2c1CC=C(C)C [αMG, α-mangostin]
pIC50 [3, 13]: 5.22 | pIC50 (hERG; [14]): < 4.00 | Cmax [10]: 1380 nM

triton X-100 [reference compound]
HepG2 cell viability compared to the 0.2% DMSO-treated group (HepG2 cells [1]): significant decrease in cell viability
